From patent US9221827B2, “Antimicrobial compounds and methods of making and using the same” (Melinta Therapeutics, Inc., priority 2011, dated 2015)

Tested on: Escherichia coli strain ATCC25922
Experiment: standard microdilution assay to determine minimum inhibitory concentrations (MICs)
Format: cell-based
Protocol: The in vitro activity of the compounds of the present invention can be determined. Antimicrobial testing is typically performed to determine the minimum inhibitory concentration (MIC). Minimum inhibitory concentrations (MICs) are determined by the microdilution method in a final volume of 100 μl according to protocols outlined by The Clinical and Laboratory Standards Institute (CLSI). Performance standards for reference strains are assessed within the same experimental design to maintain quality control. See, for example, Clinical Laboratory Standards Institute: Methods for dilution antimicrobial susceptibility tests for bacteria that grow aerobically M7-A8. Approved Standard-Eighth Edition. Wayne, Pa.: CLSI; December 2008; and Clinical Laboratory Standards Institute: Performance Standards for Antimicrobial Susceptibility Testing M100-S20; Approved Standard-Twentieth Edition. Wayne, Pa.: CLSI; June 2010.
The compounds of the present invention were tested for antimicrobial activity. […] The compounds were run against Escherichia coli strain ATCC25922 using a standard microdilution assay to determine minimum inhibitory concentrations (MICs). […] A “N/A” means that data is unavailable. It will be recognized by one skilled in the art that the compounds can be assessed against other bacterial organisms and that the presentation of data for activity against Escherichia coli is illustrative and in no way is intended to limit the scope of the present invention. The compounds of the present invention can be assayed against a range of other microorganisms depending upon the performance activity desired to be gathered. Furthermore, the “+”, “−”, and “N/A” representation and the selection of a cutoff value of 16 micrograms/ml is also illustrative and in no way is intended to limit the scope of the present invention.

[1] = Escherichia coli strain ATCC25922, standard microdilution assay
[2] = Escherichia coli strain ATCC25922, microdilution

SMILES | E. coli ATCC25922 MIC [2] | further results
C[C@H](N)c1ccc(-n2cc3cc(-c4cc(CCC5(CN)CC5)cc(C(F)(F)F)c4)[nH]c3nc2=O)cc1 [Compound 354] | – | E. coli ATCC25922 MIC [1]: − (a “−” indicates that the compound has an MIC value greater than 16 micrograms/ml)
CC(CN)Cc1cc(-c2cc3cn(-c4ccc(CNCCCNC(=N)N)cc4)c(=O)nc3[nH]2)c(F)c(C(F)(F)F)c1 (centres unmarked) [Compound 280] | + (a “+” indicates that the compound has an MIC value of 16 micrograms/ml or less) | –
CC(C)c1cc(CCC(C)(C)CN)cc(-c2cc3cn(-c4ccc(CNCCCNC(=N)N)cc4)c(=O)nc3[nH]2)c1 [Compound 97] | + (a “+” indicates that the compound has an MIC value of 16 micrograms/ml or less) | –
N=C(N)NCCCNCc1ccc(-n2cc3cc(-c4cc(OC(F)(F)F)cc(C5CCC(CN)O5)c4)[nH]c3nc2=O)cc1 (centres unmarked) [Compound 435] | – | E. coli ATCC25922 MIC [1]: + (a “+” indicates that the compound has an MIC value of 16 micrograms/ml or less)
Cc1c(CC(C)C)cc(CCC[C@H](C)N)cc1-c1cc2cn(-c3ccc([C@H](C)NCCCNC(=N)N)cc3)c(=O)nc2[nH]1 [Compound 453] | – | E. coli ATCC25922 MIC [1]: + (a “+” indicates that the compound has an MIC value of 16 micrograms/ml or less)
N=C(N)NCCCNCc1ccc(-c2c[nH]c(NC(=O)Nc3c(Cl)cccc3OCCCN)nc2=O)cc1 [Compound 187] | − (a “−” indicates that the compound has an MIC value greater than 16 micrograms/ml) | –
N=C(N)NCCCNCc1ccc(-n2cc3cc(-c4cc(CCC5(CN)CC5)cc(C(F)(F)F)c4)[nH]c3nc2=O)cc1 [Compound 319] | + (a “+” indicates that the compound has an MIC value of 16 micrograms/ml or less) | –
CC(NCCCNC(=N)N)c1ccc(-n2cc3cc(-c4cc(COC5CC(N)C5)cc(OC(F)(F)F)c4)[nH]c3nc2=O)cc1 (mixture of isomers) [Compound 423] | – | E. coli ATCC25922 MIC [1]: + (a “+” indicates that the compound has an MIC value of 16 micrograms/ml or less)
CCC[C@H](NCCCNC(=N)N)c1ccc(-n2cc3cc(-c4cc(CCC[C@H](C)N)cc(Cl)c4F)[nH]c3nc2=O)cc1 [Compound 415] | – | E. coli ATCC25922 MIC [1]: + (a “+” indicates that the compound has an MIC value of 16 micrograms/ml or less)
N=C(N)NCCCNCc1ccc(-n2cc3cc(-c4cc(CCC5(CN)CCC5)cc(F)c4Cl)[nH]c3nc2=O)cc1 [Compound 138] | + (a “+” indicates that the compound has an MIC value of 16 micrograms/ml or less) | –
CC(N)CCCc1cc(Cl)c(F)c(-c2cc3cn(-c4ccc(C(NCCCNC(=N)N)C(=O)O)cc4)c(=O)nc3[nH]2)c1 (centres unmarked) [Compound 495] | + (a “+” indicates that the compound has an MIC value of 16 micrograms/ml or less) | –
C[C@H](N)CCCc1cc(Cl)c(F)c(-c2cc3cn(-c4ccc([C@H](C)NCCCNC(=N)N)cc4)c(=O)nc3[nH]2)c1 [Compound 234] | – | MIC (Escherichia coli strain ATCC25922, microdilution, read-out: E. coli ATCC25922 MIC): ≤ 16 µg/mL
CC(N)CCCc1cc(Cl)c(F)c(-c2cc3cn(-c4ccc(C(C)NCCCNC(N)=NC(C)C)cc4)c(=O)nc3[nH]2)c1 (centres unmarked) [Compound 364] | – | E. coli ATCC25922 MIC [1]: + (a “+” indicates that the compound has an MIC value of 16 micrograms/ml or less)
CC(CCCc1cc(Cl)c(F)c(-c2cc3cn(-c4ccc(CNCCCNC(=N)N)cc4)c(=O)nc3[nH]2)c1)N(C)C (centres unmarked) [Compound 298] | + (a “+” indicates that the compound has an MIC value of 16 micrograms/ml or less) | –
CC(C)c1cc(CCC[C@H](C)N)cc(-c2cc3cn(-c4ccc([C@H](C)NCCCNC(=N)N)cc4)c(=O)nc3[nH]2)c1F [Compound 447] | – | E. coli ATCC25922 MIC [1]: + (a “+” indicates that the compound has an MIC value of 16 micrograms/ml or less)
CCc1cc(CCCC(C)N)cc(-c2cc3cn(-c4ccc(CNCCCNC(=N)N)cc4)c(=O)nc3[nH]2)c1Cl (centres unmarked) [Compound 283] | + (a “+” indicates that the compound has an MIC value of 16 micrograms/ml or less) | –
N=C(N)NCCCNCc1ccc(-n2cc3cc(-c4cc(CCCCN)cc(-n5ccnc5)c4)[nH]c3nc2=O)cc1 [Compound 59] | + (a “+” indicates that the compound has an MIC value of 16 micrograms/ml or less) | –
CC(N)CCCc1cc(Cl)c(F)c(-c2cc3cn(-c4ccc(C5(NCCCNC(=N)N)CC5)cc4)c(=O)nc3[nH]2)c1 (centres unmarked) [Compound 486] | + (a “+” indicates that the compound has an MIC value of 16 micrograms/ml or less) | –
C[C@H](N)CCCc1cc(-c2cc3cn(-c4ccc([C@H](C)NCCCNC(=N)N)cc4)c(=O)nc3[nH]2)cc2c1OCCO2 [Compound 469] | + (a “+” indicates that the compound has an MIC value of 16 micrograms/ml or less) | –

SMILES | E. coli ATCC25922 MIC [2] | further results
CCc1cc(CCC[C@H](C)N)nc(-c2cc3cn(-c4ccc([C@H](C)NCCCNC(=N)N)cc4)c(=O)nc3[nH]2)c1 [Compound 388] | – | E. coli ATCC25922 MIC [1]: + (a “+” indicates that the compound has an MIC value of 16 micrograms/ml or less)
N=C(N)NCCCNCc1c(F)cc(-n2cc3cc(-c4cc(CCCCN)ccc4F)[nH]c3nc2=O)cc1F [Compound 53] | + (a “+” indicates that the compound has an MIC value of 16 micrograms/ml or less) | –
N=C(N)NCCCNCc1ccc(-n2cc3cc(-c4cc(CC5CC(CN)C5)cc(C(F)(F)F)c4)[nH]c3nc2=O)cc1 (centres unmarked) [Compound 349] | – | E. coli ATCC25922 MIC [1]: + (a “+” indicates that the compound has an MIC value of 16 micrograms/ml or less)
C[C@H](N)CCCc1cc(-c2cc3cn(-c4ccc(CNCCCNC(=N)N)cc4)c(=O)nc3[nH]2)cc(C(F)(F)F)c1 [Compound 248] | + (a “+” indicates that the compound has an MIC value of 16 micrograms/ml or less) | –
N=C(N)NCCCNCc1ccc(-n2cc3cc(-c4cc(CC[C@H](O)CN)cc(OC(F)(F)F)c4)[nH]c3nc2=O)cc1 [Compound 239] | + (a “+” indicates that the compound has an MIC value of 16 micrograms/ml or less) | –
CNC[C@@H]1C[C@@H](NC(=O)Nc2nc(=O)c(-c3ccc(CNCCCNC(=N)N)cc3)c[nH]2)CN1C[C@@H](C)CN [Compound 151] | + (a “+” indicates that the compound has an MIC value of 16 micrograms/ml or less) | –
N=C(N)NCCCCc1cc(-c2cc3cn(-c4ccc(CNCCCNC(=N)N)cc4)c(=O)nc3[nH]2)cc(-n2ccnn2)c1 [Compound 56] | + (a “+” indicates that the compound has an MIC value of 16 micrograms/ml or less) | –
N=C(N)NCCCNCc1ccc(-n2cc3cc(-c4cc(CCCCN)cc(F)c4C(F)(F)F)[nH]c3nc2=O)cc1 [Compound 218] | + (a “+” indicates that the compound has an MIC value of 16 micrograms/ml or less) | –
CC(N)CCCc1cc(Cl)c(F)c(-c2cc3cn(-c4ccc(C(CC(=O)O)NCCCNC(=N)N)cc4)c(=O)nc3[nH]2)c1 (centres unmarked) [Compound 489] | + (a “+” indicates that the compound has an MIC value of 16 micrograms/ml or less) | –
C=CC(NCCCNC(=N)N)c1ccc(-n2cc3cc(-c4cc(CCCC(C)N)cc(Cl)c4F)[nH]c3nc2=O)cc1 (centres unmarked) [Compound 481] | + (a “+” indicates that the compound has an MIC value of 16 micrograms/ml or less) | –
C=CC(NCCCNC(=N)N)c1ccc(-n2cc3cc(-c4cc(CCCC(C)N)cc(C(F)(F)F)c4)[nH]c3nc2=O)cc1 (centres unmarked) [Compound 482] | + (a “+” indicates that the compound has an MIC value of 16 micrograms/ml or less) | –
CC(C)c1cc(CCCCN)cc(-c2cc3cn(-c4ccc(CNCCCN=C(N)N)c(F)c4)c(=O)nc3[nH]2)c1 [Compound 77] | + (a “+” indicates that the compound has an MIC value of 16 micrograms/ml or less) | –
C[C@H](N)COCc1cc(-c2cc3cn(-c4ccc([C@H](C)NCCCNC(=N)N)cc4)c(=O)nc3[nH]2)cc(C(F)(F)F)c1 [Compound 322] | + (a “+” indicates that the compound has an MIC value of 16 micrograms/ml or less) | –
CC(C)(CN)CCc1cc(F)c(Cl)c(-c2cc3cn(-c4ccc(CNCCCNC(=N)N)cc4)c(=O)nc3[nH]2)c1 [Compound 125] | + (a “+” indicates that the compound has an MIC value of 16 micrograms/ml or less) | –
C[C@@H](CCCc1cc(SC(F)(F)F)cc(-c2cc3cn(-c4ccc(CNCCCNC(=N)N)cc4)c(=O)nc3[nH]2)c1)N(C)C [Compound 302] | + (a “+” indicates that the compound has an MIC value of 16 micrograms/ml or less) | –
CC(C)c1cc(CCCCN)cc(-c2cc3cn(-c4ccc(CNCCCNC(=N)N)cc4)c(=O)nc3[nH]2)c1 [Compound 46] | + (a “+” indicates that the compound has an MIC value of 16 micrograms/ml or less) | –
N=C(N)NCCCNCc1ccc(-n2cc3cc(-c4c(F)c(F)cc(CCCCN)c4F)[nH]c3nc2=O)cc1 [Compound 6] | + (a “+” indicates that the compound has an MIC value of 16 micrograms/ml or less) | –
C[C@H](NCCCNC(=N)N)c1ccc(-n2cc3cc(-c4cc(CCCC(C)(C)N)cc(Cl)c4F)[nH]c3nc2=O)cc1 [Compound 296] | + (a “+” indicates that the compound has an MIC value of 16 micrograms/ml or less) | –
N=C(N)NCCCNCc1ccc(-n2cc3cc(-c4cc(CCCCN)ccc4OC(F)(F)F)[nH]c3nc2=O)cc1 [Compound 50] | + (a “+” indicates that the compound has an MIC value of 16 micrograms/ml or less) | –
